We go through two molecules from ChEMBL document CHEMBL1144216, “Suppression of cytokine production in lipopolysaccharide-stimulated mouse macrophages by novel cationic glucosamine derivative involves down-regulation of NF-kappaB and MAPK expressions” (2008).

The test system of test [1] is RAW264.7. The experiment in a line: Inhibition of LPS-stimulated IL1-beta production in mouse RAW264.7 cells treated 1 hr before LPS challenge after 24 hrs by ELISA. The test is classed as functional, cell-based. A general note: In an ELISA, binding on a coated surface is turned into a signal by an enzyme label.
Test [2] has as its system RAW264.7. The experiment in a line: Inhibition of LPS-stimulated TNFalpha production in mouse RAW264.7 cells treated 1 hr before LPS challenge after 24 hrs by ELISA. The test is classed as functional, cell-based.
In test [3] the test system is RAW264.7. Put plainly: Inhibition of LPS-stimulated IL6 production in mouse RAW264.7 cells treated 1 hr before LPS challenge after 24 hrs by ELISA. The test is classed as functional, cell-based.
Test [4] concerns RAW264.7. Put plainly: Inhibition of LPS-stimulated PGE2 production in mouse RAW264.7 cells treated 1 hr before LPS challenge after 24 hrs by ELISA. The test is classed as functional, cell-based.
For test [5], the system named is RAW264.7. Put plainly: Inhibition of LPS-stimulated ERK expression in mouse RAW264.7 cells by Western blotting. The test is classed as functional, cell-based.
For test [6], the system named is RAW264.7. Put plainly: Inhibition of LPS-stimulated PGE2 production in mouse RAW264.7 cells at 50 ug/ml treated 1 hr before LPS challenge after 24 hrs by ELISA. The test is classed as functional.
Test [7] deals with RAW264.7. Put plainly: Inhibition of LPS-stimulated IL1-beta production in mouse RAW264.7 cells at 60 ug/mL by Western blot analysis. The test is classed as functional, cell-based.
Test [8] concerns RAW264.7. Put plainly: Inhibition of LPS-stimulated IL6 production in mouse RAW264.7 cells at 60 ug/mL by Western blot analysis. The test is classed as functional, cell-based.
Test [9] concerns RAW264.7. The experiment in a line: Inhibition of LPS-stimulated IL1-beta production in mouse RAW264.7 cells assessed as IL1-beta level at 50 ug/ml treated 1 hr before LPS challenge after 24 hrs by ELISA. The test is classed as functional.
Test [10] deals with RAW264.7. The experiment in a line: Inhibition of LPS-stimulated TNFalpha production in mouse RAW264.7 cells at 60 ug/mL by Western blot analysis. The test is classed as functional, cell-based. For orientation: A western blot detects proteins with antibodies after separation by electrophoresis.
Test [11] has as its system RAW264.7. The experiment in a line: Increase in IkappaB protein expression in mouse RAW264.7 cells by Western blotting relative to control. The test is classed as functional, cell-based.
The subject of test [12] is RAW264.7. The experiment in a line: Inhibition of IKK protein expression in mouse RAW264.7 cells by Western blotting. The test is classed as functional, cell-based.
Test [13] concerns RAW264.7. The experiment in a line: Inhibition of LPS-stimulated IL6 production in mouse RAW264.7 cells at 50 ug/ml treated 1 hr before LPS challenge after 24 hrs by ELISA. The test is classed as functional, cell-based.
Test [14] has as its system RAW264.7. Put plainly: Effect on level of NIK in mouse RAW264.7 cells by Western blotting. The test is classed as functional, cell-based.
Test [15] deals with RAW264.7. The experiment in a line: Inhibition of LPS-stimulated p38MAPK expression in mouse RAW264.7 cells by Western blotting. The test is classed as functional, cell-based.
Test [16] deals with RAW264.7. Put plainly: Reduction of LPS-induced NF-kappaB translocation in mouse RAW264.7 cells assessed as NF-kappaB p65 protein expression level at 60 ug/mL by Western blotting. The test is classed as functional, cell-based.
The subject of test [17] is RAW264.7. Put plainly: Inhibition of LPS-stimulated JNK level in mouse RAW264.7 cells by Western blotting. The test is classed as functional, cell-based.
Test [18] deals with RAW264.7. The experiment in a line: Inhibition of LPS-stimulated TNFalpha production in mouse RAW264.7 cells at 50 ug/ml treated 1 hr before LPS challenge after 24 hrs by ELISA. The test is classed as functional.
Test [19] relates to RAW264.7. The experiment in a line: Reduction of LPS-induced NF-kappaB translocation in mouse RAW264.7 cells assessed as NF-kappaB p65 protein expression level at 40 ug/mL by Western blotting. The test is classed as functional, cell-based.
Test [20] concerns RAW264.7. Put plainly: Inhibition of LPS-induced NF-kappaB promoter activity in mouse RAW264.7 cells by luciferase reporter assay. The test is classed as functional, cell-based. For orientation: A reporter such as luciferase makes a cellular process visible.

Activity calls are given as the source filed them. No cut-off for these calls is given here.

Regarding `N[C@H]1C(O)O[C@H](CO)[C@@H](O)[C@@H]1O` (stereo not given in full), the Activity entry with RAW264.7 [1], with RAW264.7 [2], in the test with RAW264.7 [3] and in the test on RAW264.7 [4] was “Dose-dependent effect” throughout.
What is called inhibition is the change of the read-out against control, counted positive when it falls. The low end stands for a weak effect, the high end for a strong effect. As to `C[N+](C)(C)CC(O)CN[C@@H]1[C@@H](O)[C@H](O)[C@@H](CO)O[C@H]1O.[Cl-]` (stereo not given in full), the result with RAW264.7 [5] and in the test on RAW264.7 [14] was inactive. For the same molecule, the figures for the inhibition at 50 µg/mL in the test with RAW264.7 [6] and in the test on RAW264.7 [18] were 50% and 45%, respectively. The result with RAW264.7 [7], in the test on RAW264.7 [8], with RAW264.7 [10], in the test on RAW264.7 [11], in the test with RAW264.7 [12] and in the test with RAW264.7 [13] was Active. Also, the outcome with RAW264.7 [16] and in the test with RAW264.7 [19] was Active. The Activity with RAW264.7 [9] was 100 pg/mL; in the test with RAW264.7 [15] it was “Dose-dependent effect”; in the test with RAW264.7 [17], “Dose-dependent effect”; in the test on RAW264.7 [20], “Dose-dependent effect”.
